Converted amounts (≈) assume the structure as drawn. Where two headings read alike, the source gives them in different places.
Assays:
[1] = surface tension, drop count method, Traube stalagmometer; format: physicochemical; settings: aqueous solution c = 2.0 × 10^−3 M, 21 °C; water γ = 0.07259 N/m
Procedure: Surface tension (relative surface activity; γ) of aqueous solutions of the compounds 1a–p (c = 2.0 × 10^−3 M) was determined by a drop count technique using a Traube stalagmometer. All evaluated substances were able to decrease surface tension of water (γ = 0.07259 N/m) at 21 °C.
Surface tension (relative surface activity; γ) of the derivatives 1a–p was determined by a drop count method using a glassy Traube stalagmometer (Kavalier Glass, Prague, Czech Republic). Number of drops of compounds’ and reference solutions were counted between upper and lower marks of the stalagmometer. Aqueous solutions of the molecules 1a–p were prepared with distilled, deionized water (c = 2.0 × 10^−3 M). […] The drops were allowed to form at constant temperature 21 °C. The experimental procedure was described in a paper. Current measurements were done in six replicates and average γ values (in N/m units) were reported (Table 1).

[2] = tested on: M. avium CNCTC My 330/80 (identical with ATCC 25291; MA 330/80); assay: in vitro antimycobacterial MIC, dilution micromethod in Šula's semisynthetic medium; format: cell-based, Mycobacterium avium
[3] = tested on: M. tuberculosis H37Ra ATCC 25177 (MTa H37Ra); assay: in vitro antimycobacterial MIC, 96-well Middlebrook broth, alamarBlue; format: cell-based, Mycobacterium tuberculosis; settings: 7-day cultivation, read-out: MIC MTa H37Ra 7-d
Procedure: In vitro susceptibitity of given mycobacteria to reference drugs isoniazid (INH), ethambutol (EMB), ofloxacin (OFLX) or ciprofloxacin (CPX) was tested as well (Table 6 and Table 7).
A value of a minimum inhibitory concentration (MIC) was the lowest concentration of a tested compound, (i) which inhibited growth of MTv H37Rv, MK 235/80, MK 6509/96 and MA 330/80, respectively; (ii) at which no visible growth of MTa H37Ra, MS, MK DSM as well as MM was observed.
The molecules 1a–p were also in vitro screened against an avirulent M. tuberculosis H37Ra ATCC 25177 (MTa H37Ra), M. kansasii DSM 44162 (MK DSM), M. smegmatis ATCC 700084 (MS) and M. marinum CAMP 5644 (MM), respectively, in the Department of Infectious Diseases and Microbiology (Faculty of Veterinary Medicine, University of Veterinary and Pharmaceutical Sciences in Brno, Czech Republic).
Determination of a minimum inhibitory concentration (MIC) against MTa H37Ra. The mycobacterium was grown on Middlebrook broth (MB; MiddleBrook Pharmaceuticals, Inc., Westlake, TX, USA), supplemented with Oleic-Albumin-Dextrose-Catalase (OADC) supplement (Difco, Lawrence, KS, USA) and salicylate-derived mycobactin J (2 μg/mL; Allied Monitor Inc., Fayette, MO, USA), an iron-binding siderophore.
At log phase growth, a culture sample (10 mL) was centrifuged at 15,000 rpm/20 min using a bench top centrifuge MPW-65R (MPW Med Instruments, Warsaw, Poland). Following removal of the supernatant, a pellet was washed in fresh liquid Middlebrook 7H9GC broth (MiddleBrook Pharmaceuticals, Inc.) and re-suspended in a fresh OADC-supplemented MB (10 mL).
Turbidity was adjusted to match the McFarland standard No. 1 [87] containing approximately 3 × 10^8 Colony Forming Units (CFU) with MB broth. Further 1:20 dilution of the culture was performed in MB broth.
Susceptibility of MTa H37Ra was investigated in a 96-well plate format. In the experiments, sterile deionized water (300 µL) was added to all outer-perimeter wells of the plates to minimize evaporation of the medium in test wells during incubation. Each evaluated compound (100 µL) was incubated with MTa H37Ra (100 µL). Dilutions of each compound were prepared in triplicate and final concentrations varied from 1000 μg/mL to 8 μg/mL. All tested molecules were dissolved in DMSO (Sigma-Aldrich, Irvine, UK), and subsequent dilutions were made in supplemented MB broth. The plates were sealed with parafilm and incubated at 37 °C for 7 days.
Following incubation, 10% addition a water-soluble dye, the alamarBlue reagent (AbD Serotec, Kidlington, UK) was mixed into each well. This resaurin-based reagent served as an oxidation-reduction indicator of metabolic function and cellular health in cell viability bioassays.
Absorbance readings at 570 nm and 600 nm were taken, initially for background subtraction and after 24h re-incubation. The subtraction is necessary for strongly colored compounds, where the color may interfere with the interpretation of any color change. For non-interfering compounds, a blue color in a well was interpreted as absence of growth and pink color was scored as growth.
The minimum inhibitory concentration (MIC) was defined as the lowest concentration of a compound, at which no visible bacterial growth was observed. In other words, the MIC was the lowest concentration that prevented visual color change from blue to pink.

[4] = tested on: M. smegmatis ATCC 700084 (MS); assay: in vitro antimycobacterial MIC, broth dilution micromethod in Middlebrook 7H9; format: cell-based, Mycobacterium smegmatis; settings: Mycolicibacterium smegmatis, ATCC700084, 72 h
[5] = tested on: Mycobacterium tuberculosis CNCTC My 331/88 (identical with H37Rv and ATCC 2794; MTv H37Rv); assay: in vitro antimycobacterial MIC, dilution micromethod in Šula's semisynthetic medium; format: cell-based
[6] = tested on: M. kansasii CNCTC My 235/80 (identical with ATCC 12478; MK 235/80); assay: as above; format: cell-based, Mycobacterium kansasii
[7] = read-out: MIC MS 3-d, 3-day cultivation, 37 °C
[8] = Mycobacterium avium, ATCC25291, 336 h, read-out: MIC MA 330/80 14-d
[9] = Mycobacterium avium, ATCC25291, 504 h, read-out: MIC MA 330/80 21-d
[10] = Mycobacterium tuberculosis, 168 h
[11] = Mycobacterium tuberculosis, 336 h, 14-day cultivation, read-out: MIC MTv H37Rv 14-d
[12] = Mycobacterium tuberculosis, 504 h, 21-day cultivation, read-out: MIC MTv H37Rv 21-d
[13] = Mycobacterium kansasii, ATCC12478, 168 h, read-out: MIC MK 235/80 7-d
[14] = Mycobacterium kansasii, ATCC12478, 336 h, read-out: MIC MK 235/80 14-d
[15] = Mycobacterium kansasii, ATCC12478, 504 h, read-out: MIC MK 235/80 21-d
[16] = Mycobacterium avium, ATCC25291, 336 h, 14-day cultivation, read-out: MIC MA 330/80 14-d
[17] = Mycobacterium avium, ATCC25291, 504 h, 21-day cultivation, read-out: MIC MA 330/80 21-d
[18] = 3-day cultivation, 37 °C, read-out: MIC MS 3-d
[19] = Mycobacterium kansasii, ATCC12478, 168 h, 7-day cultivation, read-out: MIC MK 235/80 7-d
[20] = Mycobacterium kansasii, ATCC12478, 336 h, 14-day cultivation, read-out: MIC MK 235/80 14-d
[21] = Mycobacterium kansasii, ATCC12478, 504 h, 21-day cultivation, read-out: MIC MK 235/80 21-d

CCCCCCCOc1cccc(NC(=O)OC(CN(CCC)CCC)CN2CCCCCC2)c1.Cl.Cl (stereo not shown) [1p, 1-[2-[({[3-(heptyloxy)phenyl]amino}carbonyl)-oxy]-3-(dipropylammonio)propyl]azepanium dichloride]
surface tension γ (relative surface activity) [1]: 0.05692 N/m | MIC ([2]; 14-day cultivation, read-out: MIC MA 330/80 14-d): 16 µM | MIC ([2]; 21-day cultivation, read-out: MIC MA 330/80 21-d): 16 µM | MIC [3]: 7.1 µM | MIC [4, 7]: 7.1 µM | MIC ([5]; 14-day cultivation, read-out: MIC MTv H37Rv 14-d): 4 µM | MIC ([5]; 21-day cultivation, read-out: MIC MTv H37Rv 21-d): 8 µM | MIC ([6]; 7-day cultivation, read-out: MIC MK 235/80 7-d): 8 µM | MIC ([6]; 14-day cultivation, read-out: MIC MK 235/80 14-d): 8 µM | MIC ([6]; 21-day cultivation, read-out: MIC MK 235/80 21-d): 8 µM | MIC ([6]; Mycobacterium kansasii, ATCC12478, cultivation time not given, read-out: MIC MK 235/80): 8 µM

CCCCCCCOc1ccccc1NC(=O)OC(CN(CCC)CCC)CN1CCCC1.Cl.Cl (stereo not shown) [1d, 1-[2-[({[2-(heptyl-oxy)phenyl]amino}carbonyl)oxy]-3-(dipropylammonio)propyl]pyrrolidinium dichloride]
surface tension γ (relative surface activity) [1]: 0.05985 N/m | MIC [2, 8]: 32 µM | MIC [2, 9]: 32 µM | MIC [3, 10]: 12.5 µM | MIC [4, 7]: 24.9 µM | MIC [5, 11]: 8 µM | MIC [5, 12]: 8 µM | MIC [6, 13]: 16 µM | MIC [6, 14]: 16 µM | MIC [6, 15]: 32 µM

CCCCOc1cccc(NC(=O)OC(CN(CCC)CCC)CN2CCCC2)c1 (stereo not shown) [1e]
surface tension γ (relative surface activity) [1]: 0.06316 N/m | MIC [2, 16]: 62.5 µM (≈ 26.2 µg/mL) | MIC [2, 17]: 62.5 µM (≈ 26.2 µg/mL) | MIC [3, 10]: 8.1 µM (≈ 3.4 µg/mL) | MIC [4, 18]: 16.2 µM (≈ 6.8 µg/mL) | MIC [5, 11]: 16 µM (≈ 6.71 µg/mL) | MIC [5, 12]: 32 µM (≈ 13.4 µg/mL) | MIC [6, 19]: 32 µM (≈ 13.4 µg/mL) | MIC [6, 20]: 32 µM (≈ 13.4 µg/mL) | MIC [6, 21]: 32 µM (≈ 13.4 µg/mL)

CCCCCCOc1ccccc1NC(=O)OC(CN(CCC)CCC)CN1CCCCCC1 (stereo not shown) [1k]
surface tension γ (relative surface activity) [1]: 0.06065 N/m | MIC [2, 16]: 32 µM (≈ 15.2 µg/mL) | MIC [2, 17]: 62.5 µM (≈ 29.7 µg/mL) | MIC [3, 10]: 195 µM (≈ 92.8 µg/mL) | MIC [4, 18]: 390 µM (≈ 186 µg/mL) | MIC [5, 11]: 8 µM (≈ 3.81 µg/mL) | MIC [5, 12]: 16 µM (≈ 7.61 µg/mL) | MIC [6, 19]: 16 µM (≈ 7.61 µg/mL) | MIC [6, 20]: 32 µM (≈ 15.2 µg/mL) | MIC [6, 21]: 62.5 µM (≈ 29.7 µg/mL)

CCCCOc1ccccc1NC(=O)OC(CN(CCC)CCC)CN1CCCC1 (stereo not shown) [1a]
surface tension γ (relative surface activity) [1]: 0.06464 N/m | MIC [2, 16]: 125 µM (≈ 52.5 µg/mL) | MIC [2, 17]: 125 µM (≈ 52.5 µg/mL) | MIC [3, 10]: 213 µM (≈ 89.4 µg/mL) | MIC [4, 7]: 213 µM (≈ 89.4 µg/mL) | MIC [5, 11]: 32 µM (≈ 13.4 µg/mL) | MIC [5, 12]: 32 µM (≈ 13.4 µg/mL) | MIC [6, 19]: 62.5 µM (≈ 26.2 µg/mL) | MIC [6, 20]: 62.5 µM (≈ 26.2 µg/mL) | MIC [6, 21]: 62.5 µM (≈ 26.2 µg/mL)

CCCCCOc1ccccc1NC(=O)OC(CN(CCC)CCC)CN1CCCCCC1.O=C(O)C(=O)O (stereo not shown) [1j, 1-[2-[({[2-(Pentyloxy)phenyl]amino}carbonyl)oxy]-3-(dipropylammonio)propyl]-azepanium oxalate]
surface tension γ (relative surface activity) [1]: 0.06206 N/m | MIC [2, 8]: 62.5 µM | MIC [2, 9]: 125 µM | MIC [3, 10]: 199 µM | MIC [4, 7]: 6.2 µM | MIC [5, 11]: 16 µM | MIC [5, 12]: 32 µM | MIC [6, 13]: 16 µM | MIC [6, 14]: 32 µM | MIC [6, 15]: 62.5 µM

CCCCOc1ccccc1NC(=O)OC(CN(CCC)CCC)CN1CCCCCC1 (stereo not shown) [1i]
surface tension γ (relative surface activity) [1]: 0.06302 N/m | MIC [2, 16]: 62.5 µM (≈ 28 µg/mL) | MIC [2, 17]: 125 µM (≈ 56 µg/mL) | MIC [3, 10]: 203 µM (≈ 90.9 µg/mL) | MIC [4, 7]: 203 µM (≈ 90.9 µg/mL) | MIC [5, 11]: 16 µM (≈ 7.16 µg/mL) | MIC [5, 12]: 32 µM (≈ 14.3 µg/mL) | MIC [6, 19]: 32 µM (≈ 14.3 µg/mL) | MIC [6, 20]: 62.5 µM (≈ 28 µg/mL) | MIC [6, 21]: 62.5 µM (≈ 28 µg/mL)

CCCCCOc1ccccc1NC(=O)OC(CN(CCC)CCC)CN1CCCC1 (stereo not shown) [1b]
surface tension γ (relative surface activity) [1]: 0.06366 N/m | MIC [2, 16]: 62.5 µM (≈ 27.1 µg/mL) | MIC [2, 17]: 125 µM (≈ 54.2 µg/mL) | MIC [3, 10]: 52 µM (≈ 22.5 µg/mL) | MIC [4, 18]: 104 µM (≈ 45.1 µg/mL) | MIC [5, 11]: 16 µM (≈ 6.94 µg/mL) | MIC [5, 12]: 32 µM (≈ 13.9 µg/mL) | MIC [6, 19]: 32 µM (≈ 13.9 µg/mL) | MIC [6, 20]: 32 µM (≈ 13.9 µg/mL) | MIC [6, 21]: 62.5 µM (≈ 27.1 µg/mL)

CCCCCCOc1cccc(NC(=O)OC(CN(CCC)CCC)CN2CCCCCC2)c1.Cl.Cl (stereo not shown) [1o, 1-[2-[({[3-(hexyloxy)phenyl]amino}-carbonyl)oxy]-3-(dipropylammonio)propyl]azepanium dichloride]
surface tension γ (relative surface activity) [1]: 0.05925 N/m | MIC [2, 8]: 16 µM | MIC [2, 9]: 16 µM | MIC [3, 10]: 7.3 µM | MIC [4, 7]: 7.3 µM | MIC [5, 11]: 8 µM | MIC [5, 12]: 16 µM | MIC [6, 13]: 8 µM | MIC [6, 14]: 16 µM | MIC [6, 15]: 16 µM
